Laboratory results from PubChem BioAssay AID330 (DTP/NCI, 2004).
Several values for one entry are separate records, joined by “and”; a condition that tells them apart may be missing. Equal values may be shown once. Inconclusive results and toxic doses are left out.

Tested on: P388 leukemia ip, CD2F1 mice, survival T/C
Assay: NCI In Vivo Anticancer Drug Screen. Data for tumor model P388 Leukemia (intraperitoneal) in CD2F1 (CDF1) mice
Conditions: endpoint: median survival time, higher = longer survival
Method in brief: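 Mice carrying the transplanted tumor received test compound or vehicle. Survival was recorded in each group, and the value is the treated-group measurement divided by that of the vehicle-treated control group.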

[1] = dose: 50.0 mg/kg/injection, schedule: Q01DX005 (ip), vehicle: saline with Tween-80
[2] = dose: 100.0 mg/kg/injection, schedule: Q01DX005 (ip), vehicle: saline with Tween-80
[3] = dose: 50.0 mg/kg/injection, schedule: Q01DX009 (ip), vehicle: saline with Tween-80
[4] = dose: 100.0 mg/kg/injection, schedule: Q01DX009 (ip), vehicle: saline with Tween-80
[5] = dose: 200.0 mg/kg/injection, schedule: Q01DX009 (ip), vehicle: saline with Tween-80
[6] = dose: 60.0 mg/kg/injection, schedule: Q01DX005 (ip), vehicle: saline with Tween-80
[7] = dose: 240.0 mg/kg/injection, schedule: Q01DX005 (ip), vehicle: saline with Tween-80
[8] = dose: 200.0 mg/kg/injection, schedule: Q01DX005 (ip), vehicle: saline with Tween-80
[9] = dose: 50.0 mg/kg/injection, schedule: Q01DX005 (ip), vehicle: Klucel (hydroxypropylcellulose) (HPC)
[10] = dose: 100.0 mg/kg/injection, schedule: Q01DX005 (ip), vehicle: Klucel (hydroxypropylcellulose) (HPC)
[11] = dose: 200.0 mg/kg/injection, schedule: Q01DX005 (ip), vehicle: Klucel (hydroxypropylcellulose) (HPC)
[12] = dose: 25.0 mg/kg/injection, schedule: Q01DX009 (ip), vehicle: Klucel (hydroxypropylcellulose) (HPC)
[13] = dose: 50.0 mg/kg/injection, schedule: Q01DX009 (ip), vehicle: Klucel (hydroxypropylcellulose) (HPC)
[14] = dose: 100.0 mg/kg/injection, schedule: Q01DX009 (ip), vehicle: Klucel (hydroxypropylcellulose) (HPC)
[15] = dose: 200.0 mg/kg/injection, schedule: Q01DX009 (ip), vehicle: Klucel (hydroxypropylcellulose) (HPC)
[16] = dose: 25.0 mg/kg/injection, schedule: Q01DX005 (ip), vehicle: Klucel (hydroxypropylcellulose) (HPC)
[17] = dose: 400.0 mg/kg/injection, schedule: Q01DX009 (ip), vehicle: Klucel (hydroxypropylcellulose) (HPC)

With `Nc1nc(N)c2c(ccc3nccc32)[nH]1` the T/C (dose: 6.25 mg/kg/injection, schedule: Q01DX005 (ip), vehicle: saline) was 103 % of control, the T/C (dose: 12.5 mg/kg/injection, schedule: Q01DX005 (ip), vehicle: saline) was 103 % of control and the T/C (dose: 25.0 mg/kg/injection, schedule: Q01DX005 (ip), vehicle: saline) was 110 % of control.
With `O=C1OC(c2ccc(Cl)c(Cl)c2)C(=O)C1=O` (configuration not stated) the T/C (dose: 3.75 mg/kg/injection, schedule: Q01DX005 (ip), vehicle: saline with Tween-80) was 86 % of control, the T/C (dose: 7.5 mg/kg/injection, schedule: Q01DX005 (ip), vehicle: saline with Tween-80) was 91 % of control and the T/C (dose: 15.0 mg/kg/injection, schedule: Q01DX005 (ip), vehicle: Klucel + Tween-80) was 92 % of control. The T/C (dose: 15.0 mg/kg/injection, schedule: Q01DX005 (ip), vehicle: saline with Tween-80) was 102 % of control.
`COc1cc2oc3c(C)c(=O)cc4oc(-c5ccccc5)cc(c2c2c1CCC(c1ccccc1)O2)c43` (configuration not stated) was tested, and the T/C (dose: 6.25 mg/kg/injection, schedule: Q01DX005 (ip), vehicle: saline with Tween-80) was 106 % of control, the T/C (dose: 7.0 mg/kg/injection, schedule: Q01DX005 (ip), vehicle: Klucel (hydroxypropylcellulose) (HPC)) was 116 % of control and 211 % of control and the T/C (dose: 12.5 mg/kg/injection, schedule: Q01DX005 (ip), vehicle: saline with Tween-80) was 106 % of control. For the same compound, the T/C (dose: 14.0 mg/kg/injection, schedule: Q01DX005 (ip), vehicle: Klucel (hydroxypropylcellulose) (HPC)) was 98 % of control, the T/C (dose: 25.0 mg/kg/injection, schedule: Q01DX005 (ip), vehicle: saline with Tween-80) was 121 % of control and the T/C [1] was 124 % of control. For the same compound, the T/C [2] was 114 % of control.
In the case of `Fc1ccccc1C=NC12CC3CC(CC(C3)C1)C2`, the T/C [3] is reported as 100 % of control, the T/C [4] is reported as 102 % of control and the T/C [5] is reported as 108 % of control.
For `N#CN=[N+]([O-])c1ccc([N+](=O)[O-])cc1`, the T/C (dose: 1.56 mg/kg/injection, schedule: Q01DX001 (ip), vehicle: Klucel (hydroxypropylcellulose) (HPC)) was 101 % of control, the T/C (dose: 3.12 mg/kg/injection, schedule: Q01DX001 (ip), vehicle: Klucel (hydroxypropylcellulose) (HPC)) was 99 % of control and the T/C (dose: 6.25 mg/kg/injection, schedule: Q01DX001 (ip), vehicle: Klucel (hydroxypropylcellulose) (HPC)) was 110 % of control. The T/C (dose: 6.25 mg/kg/injection, schedule: Q04DX003 (ip), vehicle: Klucel (hydroxypropylcellulose) (HPC)) was 101 % of control.
In the case of `O=C1c2sccc2[C@H](NC(=O)C(F)(F)F)[C@@H]1Cl`, the T/C [6] is reported as 100 % of control, the T/C (dose: 120.0 mg/kg/injection, schedule: Q01DX005 (ip), vehicle: saline with Tween-80) is reported as 100 % of control and the T/C [7] is reported as 100 % of control.
For `O=S(=O)(O)C(F)(F)F`, the T/C (dose: 25.0 mg/kg/injection, schedule: Q01DX005 (ip), vehicle: water) was 101 % of control, the T/C (dose: 50.0 mg/kg/injection, schedule: Q01DX005 (ip), vehicle: water) was 100 % of control and the T/C (dose: 200.0 mg/kg/injection, schedule: Q01DX005 (ip), vehicle: water) was 100 % of control.
`O=C1CN(c2ccccc2)C(=O)C1C(=O)Nc1ccc(Cl)c(Cl)c1` (configuration not stated) was tested, and the T/C (dose: 30.0 mg/kg/injection, schedule: Q01DX005 (ip), vehicle: saline with Tween-80) was 117 % of control, the T/C [6] was 121 % of control and 123 % of control and the T/C [7] was 90 % of control.
With `COc1cc(OC)cc(-c2n[se]c(-c3cc(OC)cc(OC)c3)n2)c1` the T/C (dose: 1.56 mg/kg/injection, schedule: Q01DX009 (ip), vehicle: saline with Tween-80) was 87 % of control and the T/C [3] was 89 % of control.
For `CCCCC1CCCCCCc2[nH]c(/C=C3\N=C(c4ccc[nH]4)C=C3OC)cc21` (configuration not stated), the T/C (dose: 0.12 mg/kg/injection, schedule: Q01DX009 (ip), vehicle: saline with Tween-80) was 109 % of control and 116 % of control, the T/C (dose: 0.25 mg/kg/injection, schedule: Q01DX009 (ip), vehicle: saline with Tween-80) was 110 % of control and 119 % of control and the T/C (dose: 0.5 mg/kg/injection, schedule: Q01DX009 (ip), vehicle: saline with Tween-80) was 115 % of control and 123 % of control. For the same compound, the T/C (dose: 1.0 mg/kg/injection, schedule: Q01DX009 (ip), vehicle: saline with Tween-80) was 111 % of control and 90 % of control.
In the case of `CCC1(CC)NC(=O)[C@H](C)N1S(C)(=O)=O`, the T/C [1] is reported as 100 % of control, the T/C [2] is reported as 96 % of control and the T/C [8] is reported as 89 % of control.
In the case of `CN=C1c2ccccc2C(=O)c2c1c(O)n(C)c2O`, the T/C [9] is reported as 97 % of control, the T/C [10] is reported as 97 % of control and the T/C [11] is reported as 106 % of control.
In the case of `Cc1cc(C)cc(N(C2=NCCS2)C2=NCCS2)c1`, the T/C [12] is reported as 106 % of control, the T/C [13] is reported as 101 % of control and the T/C [14] is reported as 99 % of control. The T/C [15] was 104 % of control.
In the case of `CC(=O)O[C@@H]1C[C@@H]2[C@@]3(C)CC[C@@H](OC(=O)CC(=O)O)C(C)(C)[C@@H]3CC[C@@]2(C)[C@]2(C)CCCC([C@]3(C)CC[C@H](C(C)(C)O)O3)[C@@H]12` (some centres not stated), the T/C [16] is reported as 92 % of control, the T/C [9] is reported as 99 % of control and the T/C [10] is reported as 92 % of control and 97 % of control. For the same compound, the T/C [11] was 86 % of control and 98 % of control and the T/C (dose: 400.0 mg/kg/injection, schedule: Q01DX005 (ip), vehicle: Klucel (hydroxypropylcellulose) (HPC)) was 91 % of control.
In the case of `Fc1ccc(CN2COc3c(cc(Cl)c4cccnc34)C2)cc1`, the T/C (dose: 100.0 mg/kg/injection, schedule: Q04DX003 (ip), vehicle: Klucel (hydroxypropylcellulose) (HPC)) is reported as 102 % of control, the T/C (dose: 200.0 mg/kg/injection, schedule: Q04DX003 (ip), vehicle: Klucel (hydroxypropylcellulose) (HPC)) is reported as 100 % of control and the T/C (dose: 400.0 mg/kg/injection, schedule: Q04DX003 (ip), vehicle: Klucel (hydroxypropylcellulose) (HPC)) is reported as 110 % of control.
`CC1(C)C2CCC1(C)C(OC(=O)/C=C/c1ccc(O)c(O)c1)C2` (configuration not stated) was tested, and the T/C (dose: 12.5 mg/kg/injection, schedule: Q01DX009 (ip), vehicle: Klucel (hydroxypropylcellulose) (HPC)) was 100 % of control, the T/C [12] was 98 % of control and the T/C [13] was 87 % of control. For the same compound, the T/C [14] was 97 % of control.
For `CCCCCCCCCCCCCCCCCCCCCCCCCCCCCCO`, the T/C (dose: 25.0 mg/kg/injection, schedule: Q01DX009 (ip), vehicle: saline with Tween-80) was 86 % of control, the T/C [3] was 101 % of control and the T/C [4] was 96 % of control. The T/C [5] was 92 % of control.
In the case of `CCC(=O)O[C@H]1CC[C@H]2[C@@H]3CC[C@H]4CCCC[C@]4(C)[C@H]3CC[C@]12C`, the T/C [14] is reported as 90 % of control, the T/C [15] is reported as 95 % of control and the T/C [17] is reported as 105 % of control.
`COc1cc2ccc3c(c2cc1OC)CN(Cc1ccccc1)CC3` was tested, and the T/C [14] was 100 % of control, the T/C [15] was 100 % of control and the T/C [17] was 109 % of control.
With `O=c1[nH]cc(C(O)Cc2ccccc2)c(=O)[nH]1` (configuration not stated) the T/C [4] was 104 % of control, the T/C [5] was 100 % of control and the T/C (dose: 400.0 mg/kg/injection, schedule: Q01DX009 (ip), vehicle: saline with Tween-80) was 100 % of control.
For `Nc1nc(N)nc(CCc2nc(N)nc(N)n2)n1`, the T/C (dose: 50.0 mg/kg/injection, schedule: Q01DX009 (ip), vehicle: saline) was 103 % of control, the T/C (dose: 100.0 mg/kg/injection, schedule: Q01DX009 (ip), vehicle: saline) was 88 % of control and the T/C (dose: 200.0 mg/kg/injection, schedule: Q01DX009 (ip), vehicle: saline) was 98 % of control.
`CCCCOCN(COCCCC)CC(C)(C)C` was tested, and the T/C [3] was 107 % of control, the T/C [4] was 105 % of control and the T/C [5] was 109 % of control.
For `COc1cc2c(cc1O)CCCCC2O` (configuration not stated), the T/C (dose: 6.25 mg/kg/injection, schedule: Q01DX009 (ip), vehicle: DMSO) was 94 % of control, the T/C (dose: 12.5 mg/kg/injection, schedule: Q01DX009 (ip), vehicle: DMSO) was 102 % of control and the T/C (dose: 25.0 mg/kg/injection, schedule: Q01DX009 (ip), vehicle: DMSO) was 87 % of control. The T/C [13] was 94 % of control, the T/C [14] was 97 % of control and the T/C [15] was 94 % of control.
In the case of `O=C1C2=C(Nc3cc(Cl)ccc3N2)OC1c1ccc(Cl)c(Cl)c1` (configuration not stated), the T/C [9] is reported as 92 % of control and the T/C [11] is reported as 88 % of control.
For `CC(C)CNCC(=O)Nc1ccc(-c2ccc(NC(=O)CNCC(C)C)cc2)cc1`, the T/C [9] was 97 % of control, the T/C [10] was 97 % of control and the T/C [11] was 95 % of control.
For `COc1ccc(CCN=C(C)c2cc(Cl)cc(Cl)c2O)cc1OC`, the T/C [9] was 104 % of control, the T/C [10] was 102 % of control and the T/C [11] was 95 % of control.
`CC1(C)CC(N2CCOCC2)=CC(=NCc2ccccc2)N1` was tested, and the T/C (dose: 12.5 mg/kg/injection, schedule: Q01DX005 (ip), vehicle: Klucel (hydroxypropylcellulose) (HPC)) was 107 % of control, the T/C [16] was 99 % of control and the T/C [9] was 100 % of control and 101 % of control.
For `C=CCNC(=O)C(NC(=O)OCCCC)NC(=O)OCCCC`, the T/C [1] was 95 % of control, the T/C [2] was 87 % of control and the T/C [8] was 87 % of control.
